The values below come from US20230310356A1, “COMPOSITION FOR PREVENTING, AMELIORATING, OR TREATING BRAIN DAMAGE AND MILD COGNITIVE IMPAIRMENT COMPRISING GLUTAMINE AS EFFECTIVE COMPONENT” (INDUSTRY-ACADEMIC COOPERATION FOUNDATION GYEONGSANG …, priority 2020, published 2023).

Entries after “also recorded” stand apart in the source; their conditions may differ.

Test [1] has as its system corticosterone. Put plainly: Change in plasma corticosterone level after CIS and glutamine supplementation. In kind it is in vivo, mouse. As to conditions: STR+Gln vs STR; glutamine 150 mg/kg of feed. Here is the method:
In the present invention, C57BL/6 male mice (7-weeks old, KOATECH, South Korea) were kept under standard conditions (i.e., temperature of 22 to 24° C., humidity of 50 to 70%, and 12-hour light/dark cycle with lighting on 6 AM), and the animals were allowed to have free access to diets and water. The animals used for the present invention were handled according to the protocol (GNU-161128-M0068) acknowledged by Gyeongsang National University Institutional Animal Care and Use Committee (GNU IACUC), which follows the guidelines of National Institutes of Health (NIH, Bethesda, MD, USA). Control (CTL) is a group which received normal diet (common diet with nutritional balance) without any stress, CTL+Gln group is a normal diet group supplemented with glutamine (150 mg/kg of feed) and without any stress, STR is a normal diet group under stress, and STR+Gln group is a normal diet group supplemented with glutamine (150 mg/kg of feed) under stress. The stress group (STR) was individually brought by force to a restrainer for 2 hours every day (i.e., between 2 PM and 4 PM) so that the animals are applied with chronic immobilization stress for 15 days.

Test [2] concerns 3×TG-AD female mouse (model of Alzheimer's disease). Nature of the test: ORT cognitive ability test in animal model of Alzheimer's disease with glutamine diet. Format: in vivo. The settings on record: 6-weel old compared to the 2-weeks old. Here is the method:
As an animal model for cognitive ability evaluation, a 7-weeks old 3×TG-AD female mouse (8 mice. model of Alzheimer's disease) and a C57BL/6 female mouse (10 mice, control) were selected. The animals of each type were divided into 2 groups, and each group was provided with regular animal feed (i.e., normal diet, ND) or glutamine feed (Gln). The glutamine diet group was allowed to consume the feed containing 150 mg glutamine/kg diet, from 2-months old stage to the end of test (i.e., 6 to 7-months old stage). Health state of the animal was checked by measuring, once a week, the bodyweight of the animal and food intake (FIG. 7A). Cognitive ability test of the mouse as an animal model established above was determined by ORT (object recognition test). The animal was habituated in a box for 2 days. On Day 3, it was allowed to explore two identical objects for 10 minutes. On Day 4, one of the two objects was replaced with a novel object, and then, the animal was allowed to explore further for 5 minutes (FIG. 7B). The time spent by animal for exploring after approaching within 1 cm from the periphery of both objects was measured. After carrying out the calculation using Formula (3) below, DI (discrimination index) was calculated and compared to each other. In the present invention, a different novel object was employed for carrying out each test. […]

Test [3] concerns amyloid beta 42 (Aβ42). Put plainly: Aβ42 in neuronally derived blood exosome (NDE) by ELISA after glutamine diet. In kind it is in vivo, mouse. The settings on record: female 3×TG-AD, 3×TG+Gln vs 3×TG, after test with 6-months old animals. Here is the method:
As an animal model for cognitive ability evaluation, a 7-weeks old 3×TG-AD female mouse (8 mice. model of Alzheimer's disease) and a C57BL/6 female mouse (10 mice, control) were selected. The animals of each type were divided into 2 groups, and each group was provided with regular animal feed (i.e., normal diet, ND) or glutamine feed (Gln). The glutamine diet group was allowed to consume the feed containing 150 mg glutamine/kg diet, from 2-months old stage to the end of test (i.e., 6 to 7-months old stage). Health state of the animal was checked by measuring, once a week, the bodyweight of the animal and food intake (FIG. 7A). After the cognitive ability test with 6-months old animals, the mouse was sacrificed using carbon dioxide and a change in neuronally derived blood exosome (NDE) protein was determined. Total exosomes were separated from serum, and, after a reaction for 1 hour with anti-CD171 antibody, they were reacted for 1 hour with streptavidin-fused magnetic beads. After that, elution was carried out using 0.05 M glycine-HCl (pH 3.0), and then addition of 1 M Tris-HCl (pH 8.0) was made. Analysis was then made by using amyloid beta 42 (Aβ42) mouse ELISA kit.
A general note: An ELISA detects its analyte on a solid surface through an enzyme-linked reagent.

The test system of test [4] is normal mouse. Put plainly: Cognitive ability of normal mouse after oral administration of glutamine (Y-maze, ORT, OLT). In kind it is in vivo. Here is the method:
To determine if there is also an effect of orally administered glutamine on improving the cognitive ability of a normal mouse, 2 hours later glutamine administration, any improvement in cognitive ability was examined. The cognitive ability was tested by using Y-maze for testing short-term memory and ORT and OLT (object location recognition test) for testing long-term memory. Y-maze: To a Y-shaped maze consisting of 3 arms that are spread at 120° angle from each other and designated as A, B, and C, respectively, a mouse was introduced. Then, the spontaneous alternation indicating an entrance into different arms, 3 times consecutively, was applied to the following Formula (4) and the calculation was made (FIG. 10A). Three consecutive spontaneous alternation=[(Number of consecutive entry into different arms)/(Total number of arm entries−2)]×100 Formula (4) ORT/OLT: ORT was carried out for 10 minutes as described above, and, 24 hours later, one of the objects was translocated to a new spot and the animal was allowed to explore again for 5 minutes (FIG. 10B).

Test [5] has as its system ROS/RNS. Nature of the test: ROS/RNS levels in plasma, PFC and hippocampus after CIS and glutamine supplementation. Format: in vivo, mouse. As to conditions: STR+Gln vs STR. Here is the method: Control (CTL) is a group which received normal diet (common diet with nutritional balance) without any stress, CTL+Gln group is a normal diet group supplemented with glutamine (150 mg/kg of feed) and without any stress, STR is a normal diet group under stress, and STR+Gln group is a normal diet group supplemented with glutamine (150 mg/kg of feed) under stress. The stress group (STR) was individually brought by force to a restrainer for 2 hours every day (i.e., between 2 PM and 4 PM) so that the animals are applied with chronic immobilization stress for 15 days. Fifty-one model animals of the second cohort, i.e., 12 to 13 animals per group, were not subjected to any behavior analysis but immediately sacrificed after completion of the last immobilization stress. Then, ROS/RNS levels in the plasma, PFC, and hippocampus were examined. Specifically, ROS/RNS was examined by using ROS/RNS assay kit (STA-347; Cell Biolabs, San Diego, CA, USA) and following the manufacturer's protocol. PFC and hippocampal tissues were subjected to tissue homogenization by using Bullert blender after adding glass beads to RIPA (radioimmunoprecipitation assay) buffer solution. After the ultrasonication for 2 minutes, they were centrifuged for 10 minutes at conditions including 4° C. and 12,000×g. Then, the measurement of fluorescence intensity using Tecan Infinite F200 PRO MicroReader was repeated 3 times.

[6] abbreviates: oral glutamine, long-term memory, compared to the normal mouse.

Turning to `NC(=O)CC[C@H](N)C(=O)O` [glutamine], the plasma corticosterone level entry in test [1] is on record as “statistically significant decrease”. Further, in test [2] (3×TG-AD glutamine diet group, 150 mg glutamine/kg diet), the “impairment in cognitive ability (object recognition ability, ORT)” value is reported as “no significant impairment”. In addition, in test [2] (3×TG-AD group with glutamine diet, average from each individual), the “decrease of DI value in ORT” value turned out to be 0.1. The “Aβ42 in NDE (neuronally derived blood exosome)” value in test [3] is “statistically significant decrease; also recorded: suppressed”. The “spontaneous alternation of Y-maze test” value in test [4] (2 hours later glutamine oral administration, short-term memory) is given as “no difference”. Besides, in test [4] (setting [6]), the “cognitive ability in OLT” value is “more enhanced cognitive ability” and the “cognitive ability in ORT” value is “more enhanced cognitive ability”. Also, the “level of active oxygen/nitrogen species (ROS/RNS) in hippocampus” value in test [5] (hippocampal tissue) is given as “lower level”. For the same molecule, the “level of active oxygen/nitrogen species (ROS/RNS) in plasma” value in test [5] (plasma) was “lower level”. Further, the “level of active oxygen/nitrogen species (ROS/RNS) in PFC” value in test [5] (prefrontal cortex) is “lower level”.
